Assay results from article PMC10227015, “From a drug repositioning to a structure-based drug design approach to tackle acute lymphoblastic leukemia” (Nature Communications, 2023).

Experiments:
PLK3 = target: T1, PLK3 (Homo sapiens, UniProt Q9H4B4); assay: KINOMEscan competition binding; conditions: OR0642 1 µM; read-out: %Control
T1 construct: purchased Eurofins DiscoverX (KINOMEscan scanEDGE 97)
Procedure: (§1) Kinome profiling was provided by Eurofins DiscoverX Corporation. Determination of the % control activity for 97 kinases was obtained through an active site-directed competition binding assay that quantitatively measure interactions between compound and kinases. OR0642 was used at 1 μM.
(§2) Supplementary Table 3. KINOMEscan™ Profiling of OR0642. Competition binding assay to quantitatively measure interactions between OR0642 (1 µM) and 97 human kinases and disease relevant mutant variants.
(§3) Target Gene Symbol %Control Target Gene Symbol %Control […]

RET = target: T2, RET (Homo sapiens, UniProt P07949); assay: KINOMEscan competition binding; conditions: OR0642 1 µM; read-out: %Control
T2 construct: purchased Eurofins DiscoverX (KINOMEscan scanEDGE 97)
T2 sequence (P07949 29-1114): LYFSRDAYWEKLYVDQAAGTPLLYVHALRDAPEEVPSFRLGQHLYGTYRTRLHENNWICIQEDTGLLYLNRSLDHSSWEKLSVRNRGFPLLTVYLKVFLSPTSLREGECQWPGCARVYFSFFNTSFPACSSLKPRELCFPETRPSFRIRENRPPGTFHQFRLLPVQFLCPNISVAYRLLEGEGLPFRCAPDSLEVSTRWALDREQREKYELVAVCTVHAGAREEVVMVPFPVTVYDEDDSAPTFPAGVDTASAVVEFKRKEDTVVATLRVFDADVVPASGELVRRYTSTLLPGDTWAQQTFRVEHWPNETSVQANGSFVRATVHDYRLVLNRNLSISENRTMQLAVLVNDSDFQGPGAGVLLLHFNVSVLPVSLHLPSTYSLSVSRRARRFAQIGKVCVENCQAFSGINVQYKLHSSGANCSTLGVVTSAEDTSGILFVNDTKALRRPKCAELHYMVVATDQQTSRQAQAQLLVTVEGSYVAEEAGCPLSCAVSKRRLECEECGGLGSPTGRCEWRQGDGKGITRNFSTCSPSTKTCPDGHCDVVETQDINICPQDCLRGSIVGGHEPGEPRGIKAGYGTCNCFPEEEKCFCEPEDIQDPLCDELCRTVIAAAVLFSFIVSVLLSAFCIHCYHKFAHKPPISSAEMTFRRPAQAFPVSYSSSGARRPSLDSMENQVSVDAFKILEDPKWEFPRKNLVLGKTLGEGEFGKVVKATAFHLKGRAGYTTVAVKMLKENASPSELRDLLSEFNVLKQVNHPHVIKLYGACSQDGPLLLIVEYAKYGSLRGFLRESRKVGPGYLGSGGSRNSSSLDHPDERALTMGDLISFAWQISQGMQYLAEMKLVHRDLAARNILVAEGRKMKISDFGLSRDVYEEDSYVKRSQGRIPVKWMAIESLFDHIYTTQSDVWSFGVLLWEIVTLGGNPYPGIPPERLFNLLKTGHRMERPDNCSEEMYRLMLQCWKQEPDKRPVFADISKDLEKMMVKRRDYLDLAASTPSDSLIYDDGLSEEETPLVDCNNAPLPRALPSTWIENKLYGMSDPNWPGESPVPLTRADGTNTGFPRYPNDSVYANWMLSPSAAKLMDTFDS
Procedure: as §1, §2, §3

PLK4 = target: T3, PLK4 (Homo sapiens, UniProt O00444); assay: KINOMEscan competition binding; conditions: OR0642 1 µM; read-out: %Control
T3 construct: purchased Eurofins DiscoverX (KINOMEscan scanEDGE 97)
Procedure: as §1, §2, §3

TSSK1B = target: T4, TSSK1B (Homo sapiens, UniProt Q9BXA7); assay: KINOMEscan competition binding; conditions: OR0642 1 µM; read-out: %Control
T4 construct: purchased Eurofins DiscoverX (KINOMEscan scanEDGE 97)
T4 sequence (Q9BXA7 whole entry): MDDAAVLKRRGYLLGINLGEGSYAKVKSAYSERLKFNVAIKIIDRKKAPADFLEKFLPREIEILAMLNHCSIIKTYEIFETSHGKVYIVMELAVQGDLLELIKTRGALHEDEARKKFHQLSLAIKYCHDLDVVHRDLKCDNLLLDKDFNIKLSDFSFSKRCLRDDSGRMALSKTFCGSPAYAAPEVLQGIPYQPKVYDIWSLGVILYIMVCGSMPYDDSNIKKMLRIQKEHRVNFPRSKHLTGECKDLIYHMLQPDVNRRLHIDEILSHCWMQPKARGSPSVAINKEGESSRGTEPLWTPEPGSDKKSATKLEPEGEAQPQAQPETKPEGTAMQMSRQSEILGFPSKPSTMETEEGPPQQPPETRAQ
Procedure: as §1, §2, §3

[1] = target: T5, TYK2(JH1domain-catalytic) (Homo sapiens, UniProt P29597); assay: KINOMEscan competition binding; conditions: OR0642 1 µM; read-out: %Control
T5 construct: TYK2(JH1domain-catalytic); purchased Eurofins DiscoverX (KINOMEscan scanEDGE 97)
Procedure: as §1, §2, §3

[2] = target: T6, JAK2(JH1domain-catalytic) (Homo sapiens, UniProt O60674); assay: KINOMEscan competition binding; conditions: OR0642 1 µM; read-out: %Control
T6 construct: JAK2(JH1domain-catalytic); purchased Eurofins DiscoverX (KINOMEscan scanEDGE 97)
T6 sequence (O60674 840-1132 limits assumed): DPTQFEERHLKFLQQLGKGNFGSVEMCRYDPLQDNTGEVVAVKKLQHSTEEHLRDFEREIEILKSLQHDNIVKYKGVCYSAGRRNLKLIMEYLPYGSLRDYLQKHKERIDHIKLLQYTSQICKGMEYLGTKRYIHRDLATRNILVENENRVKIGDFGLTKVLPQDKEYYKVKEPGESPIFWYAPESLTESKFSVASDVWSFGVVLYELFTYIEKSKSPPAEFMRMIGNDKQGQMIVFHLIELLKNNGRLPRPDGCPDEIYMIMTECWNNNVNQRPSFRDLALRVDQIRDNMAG
Procedure: as §1, §2, §3

[3] = target: T7, JAK3(JH1domain-catalytic) (Homo sapiens, UniProt P52333); assay: KINOMEscan competition binding; conditions: OR0642 1 µM; read-out: %Control
T7 construct: JAK3(JH1domain-catalytic); purchased Eurofins DiscoverX (KINOMEscan scanEDGE 97)
Procedure: as §1, §2, §3

TRKA = target: T8, TRKA (Homo sapiens, UniProt P04629); assay: KINOMEscan competition binding; conditions: OR0642 1 µM; read-out: %Control
T8 construct: purchased Eurofins DiscoverX (KINOMEscan scanEDGE 97)
Procedure: as §1, §2, §3

SRPK3 = target: T9, SRPK3 (Homo sapiens, UniProt Q9UPE1); assay: KINOMEscan competition binding; conditions: OR0642 1 µM; read-out: %Control
T9 construct: purchased Eurofins DiscoverX (KINOMEscan scanEDGE 97)
Procedure: as §1, §2, §3

PLK1 = target: T10, PLK1 (Homo sapiens, UniProt P53350); assay: KINOMEscan competition binding; conditions: OR0642 1 µM; read-out: %Control
T10 construct: purchased Eurofins DiscoverX (KINOMEscan scanEDGE 97)
Procedure: as §1, §2, §3

PIM2 = target: T11, PIM2 (Homo sapiens, UniProt Q9P1W9); assay: KINOMEscan competition binding; conditions: OR0642 1 µM; read-out: %Control
T11 construct: purchased Eurofins DiscoverX (KINOMEscan scanEDGE 97)
T11 sequence (Q9P1W9 whole entry): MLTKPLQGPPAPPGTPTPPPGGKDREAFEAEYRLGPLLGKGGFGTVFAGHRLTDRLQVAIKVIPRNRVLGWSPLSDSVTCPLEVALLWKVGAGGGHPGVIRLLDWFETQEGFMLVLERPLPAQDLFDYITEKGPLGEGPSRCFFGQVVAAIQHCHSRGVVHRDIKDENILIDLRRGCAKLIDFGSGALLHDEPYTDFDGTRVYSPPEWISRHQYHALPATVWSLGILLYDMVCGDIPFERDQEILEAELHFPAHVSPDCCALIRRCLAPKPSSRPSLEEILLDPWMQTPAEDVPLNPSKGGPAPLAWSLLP
Procedure: as §1, §2, §3

PKAC-alpha = target: T12, PKAC-alpha (Homo sapiens, UniProt P17612); assay: KINOMEscan competition binding; conditions: OR0642 1 µM; read-out: %Control
T12 construct: purchased Eurofins DiscoverX (KINOMEscan scanEDGE 97)
Procedure: as §1, §2, §3

ROCK2 = target: T13, ROCK2 (Homo sapiens, UniProt O75116); assay: KINOMEscan competition binding; conditions: OR0642 1 µM; read-out: %Control
T13 construct: purchased Eurofins DiscoverX (KINOMEscan scanEDGE 97)
Procedure: as §1, §2, §3

ABL1-nonphosphorylated = target: T14, ABL1-nonphosphorylated (Homo sapiens, UniProt P00519); assay: KINOMEscan competition binding; conditions: OR0642 1 µM; read-out: %Control
T14 construct: purchased Eurofins DiscoverX (KINOMEscan scanEDGE 97)
T14 sequence (P00519 whole entry): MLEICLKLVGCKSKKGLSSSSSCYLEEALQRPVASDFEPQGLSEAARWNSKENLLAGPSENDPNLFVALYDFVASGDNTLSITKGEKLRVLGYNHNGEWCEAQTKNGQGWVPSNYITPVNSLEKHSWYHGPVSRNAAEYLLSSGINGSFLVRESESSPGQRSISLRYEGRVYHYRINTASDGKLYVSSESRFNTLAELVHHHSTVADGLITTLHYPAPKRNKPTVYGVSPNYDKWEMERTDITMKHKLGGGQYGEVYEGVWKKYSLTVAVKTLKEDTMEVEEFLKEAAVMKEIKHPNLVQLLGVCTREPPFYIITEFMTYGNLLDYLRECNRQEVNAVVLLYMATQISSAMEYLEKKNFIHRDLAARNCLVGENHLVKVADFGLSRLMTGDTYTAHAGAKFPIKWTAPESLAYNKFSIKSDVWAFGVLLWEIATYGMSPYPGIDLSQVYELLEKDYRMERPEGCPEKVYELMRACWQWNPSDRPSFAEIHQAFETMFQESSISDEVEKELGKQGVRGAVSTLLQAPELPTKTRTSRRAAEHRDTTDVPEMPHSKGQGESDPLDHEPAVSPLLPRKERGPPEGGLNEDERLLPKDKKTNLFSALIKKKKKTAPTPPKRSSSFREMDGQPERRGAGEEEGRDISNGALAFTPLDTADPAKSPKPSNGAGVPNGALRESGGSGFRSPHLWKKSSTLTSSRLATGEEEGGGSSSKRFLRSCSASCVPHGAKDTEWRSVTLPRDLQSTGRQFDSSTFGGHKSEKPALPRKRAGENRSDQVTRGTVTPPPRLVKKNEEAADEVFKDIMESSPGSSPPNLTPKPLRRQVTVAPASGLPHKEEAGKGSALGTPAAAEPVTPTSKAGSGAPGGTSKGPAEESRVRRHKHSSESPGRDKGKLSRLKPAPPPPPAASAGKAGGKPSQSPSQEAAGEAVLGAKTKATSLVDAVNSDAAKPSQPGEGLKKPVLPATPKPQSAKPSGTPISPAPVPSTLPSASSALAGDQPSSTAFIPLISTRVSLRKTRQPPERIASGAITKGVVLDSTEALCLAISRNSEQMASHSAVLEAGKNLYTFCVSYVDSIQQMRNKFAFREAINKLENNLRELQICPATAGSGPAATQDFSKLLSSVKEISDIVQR
Procedure: as §1, §2, §3

TGFBR1 = target: T15, TGFBR1 (Homo sapiens, UniProt P36897); assay: KINOMEscan competition binding; conditions: OR0642 1 µM; read-out: %Control
T15 construct: purchased Eurofins DiscoverX (KINOMEscan scanEDGE 97)
Procedure: as §1, §2, §3

ZAP70 = target: T16, ZAP70 (Homo sapiens, UniProt P43403); assay: KINOMEscan competition binding; conditions: OR0642 1 µM; read-out: %Control
T16 construct: purchased Eurofins DiscoverX (KINOMEscan scanEDGE 97)
Procedure: as §1, §2, §3

p38-beta = target: T17, p38-beta (Homo sapiens, UniProt Q15759); assay: KINOMEscan competition binding; conditions: OR0642 1 µM; read-out: %Control
T17 construct: purchased Eurofins DiscoverX (KINOMEscan scanEDGE 97)
Procedure: as §1, §2, §3

PRKCE = target: T18, PRKCE (Homo sapiens, UniProt Q02156); assay: KINOMEscan competition binding; conditions: OR0642 1 µM; read-out: %Control
T18 construct: purchased Eurofins DiscoverX (KINOMEscan scanEDGE 97)
Procedure: as §1, §2, §3

MAPKAPK2 = target: T19, MAPKAPK2 (Homo sapiens, UniProt P49137); assay: KINOMEscan competition binding; conditions: OR0642 1 µM; read-out: %Control
T19 construct: purchased Eurofins DiscoverX (KINOMEscan scanEDGE 97)
T19 sequence (P49137 whole entry): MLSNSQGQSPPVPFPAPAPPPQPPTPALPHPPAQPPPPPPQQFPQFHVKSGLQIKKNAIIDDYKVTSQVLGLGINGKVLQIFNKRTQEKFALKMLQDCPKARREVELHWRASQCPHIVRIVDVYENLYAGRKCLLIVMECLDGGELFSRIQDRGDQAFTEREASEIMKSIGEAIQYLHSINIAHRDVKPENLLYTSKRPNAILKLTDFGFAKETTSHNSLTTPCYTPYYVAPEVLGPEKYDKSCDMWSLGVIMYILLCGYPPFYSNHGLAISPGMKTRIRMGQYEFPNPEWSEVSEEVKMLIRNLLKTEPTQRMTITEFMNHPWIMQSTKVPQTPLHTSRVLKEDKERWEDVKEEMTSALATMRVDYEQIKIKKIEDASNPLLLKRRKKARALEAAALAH
Procedure: as §1, §2, §3

[4] = target: T20, RSK2(Kin.Dom.1-N-terminal) (Homo sapiens, UniProt P51812); assay: KINOMEscan competition binding; conditions: OR0642 1 µM; read-out: %Control
T20 construct: RSK2(Kin.Dom.1-N-terminal); purchased Eurofins DiscoverX (KINOMEscan scanEDGE 97)
T20 sequence (P51812 1-397 limits assumed): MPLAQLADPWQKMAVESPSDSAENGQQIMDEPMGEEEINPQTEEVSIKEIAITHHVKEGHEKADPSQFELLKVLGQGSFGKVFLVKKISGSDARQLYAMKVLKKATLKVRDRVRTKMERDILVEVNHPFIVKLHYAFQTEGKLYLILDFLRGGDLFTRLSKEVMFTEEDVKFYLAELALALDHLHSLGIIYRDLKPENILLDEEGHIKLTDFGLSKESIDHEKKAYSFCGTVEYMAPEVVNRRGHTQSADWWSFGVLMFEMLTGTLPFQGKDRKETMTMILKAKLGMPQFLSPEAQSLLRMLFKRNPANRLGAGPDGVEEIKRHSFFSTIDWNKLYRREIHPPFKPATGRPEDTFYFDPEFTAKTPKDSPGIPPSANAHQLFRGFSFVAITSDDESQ
Procedure: as §1, §2, §3

RAF1 = target: T21, RAF1 (Homo sapiens, UniProt P04049); assay: KINOMEscan competition binding; conditions: OR0642 1 µM; read-out: %Control
T21 construct: purchased Eurofins DiscoverX (KINOMEscan scanEDGE 97)
T21 sequence (P04049 whole entry): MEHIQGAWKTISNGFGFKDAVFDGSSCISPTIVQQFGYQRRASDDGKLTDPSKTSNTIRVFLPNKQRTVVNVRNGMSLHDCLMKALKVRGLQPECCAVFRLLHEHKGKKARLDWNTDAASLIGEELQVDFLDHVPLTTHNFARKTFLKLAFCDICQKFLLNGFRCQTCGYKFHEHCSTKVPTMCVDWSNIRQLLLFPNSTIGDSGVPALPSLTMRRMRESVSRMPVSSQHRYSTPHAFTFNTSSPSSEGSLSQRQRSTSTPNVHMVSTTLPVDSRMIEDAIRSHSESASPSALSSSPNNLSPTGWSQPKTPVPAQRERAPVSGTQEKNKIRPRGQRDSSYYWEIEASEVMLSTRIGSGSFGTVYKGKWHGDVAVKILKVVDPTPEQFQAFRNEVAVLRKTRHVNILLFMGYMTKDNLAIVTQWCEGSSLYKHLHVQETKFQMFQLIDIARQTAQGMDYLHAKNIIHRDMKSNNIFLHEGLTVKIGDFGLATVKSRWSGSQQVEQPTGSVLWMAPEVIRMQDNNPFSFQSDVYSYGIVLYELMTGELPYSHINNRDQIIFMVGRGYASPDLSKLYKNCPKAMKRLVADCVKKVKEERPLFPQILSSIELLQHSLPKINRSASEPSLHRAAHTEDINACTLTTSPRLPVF
Procedure: as §1, §2, §3

VEGFR2 = target: T22, VEGFR2 (Homo sapiens, UniProt P35968); assay: KINOMEscan competition binding; conditions: OR0642 1 µM; read-out: %Control
T22 construct: purchased Eurofins DiscoverX (KINOMEscan scanEDGE 97)
Procedure: as §1, §2, §3

p38-alpha = target: T23, p38-alpha (Homo sapiens, UniProt Q16539); assay: KINOMEscan competition binding; conditions: OR0642 1 µM; read-out: %Control
T23 construct: purchased Eurofins DiscoverX (KINOMEscan scanEDGE 97)
T23 sequence (Q16539 whole entry): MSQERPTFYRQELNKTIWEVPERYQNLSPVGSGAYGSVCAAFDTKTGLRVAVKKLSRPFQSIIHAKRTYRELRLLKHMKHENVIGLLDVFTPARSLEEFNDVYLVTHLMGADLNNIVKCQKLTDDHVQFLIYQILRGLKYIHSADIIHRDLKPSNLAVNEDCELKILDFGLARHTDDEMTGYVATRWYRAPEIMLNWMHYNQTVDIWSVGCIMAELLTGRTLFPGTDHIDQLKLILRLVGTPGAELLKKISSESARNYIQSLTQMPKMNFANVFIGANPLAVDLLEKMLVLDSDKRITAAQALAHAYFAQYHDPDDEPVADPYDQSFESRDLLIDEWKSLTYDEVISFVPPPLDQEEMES
Procedure: as §1, §2, §3

TIE2 = target: T24, TIE2 (Homo sapiens, UniProt Q02763); assay: KINOMEscan competition binding; conditions: OR0642 1 µM; read-out: %Control
T24 construct: purchased Eurofins DiscoverX (KINOMEscan scanEDGE 97)
Procedure: as §1, §2, §3

PDX UPNT486 = assay: Ex vivo testing on PDX samples (viability, flow cytometry, 72 h); type: cell-based, human
Excerpt: (§4) Bone marrow-infiltrating blasts from terminally mice bearing PDX as stated above were collected as established before. Extensive analysis (immunophenotype and molecular analysis) of matched primary and PDX samples used in the study are shown in Supplementary Table 7, showing that they remain stable. Briefly, after euthanasia, bone marrows from tibiae, hips, femurs, and vertebrae were isolated and blasts collected for subsequent ex vivo experiments. All samples used contained ≥90% blasts as determined by flow cytometry. For the cytotoxic evaluation of OR0642, blasts were then stained with CellTraceTM Violet (CTV, Thermo Fisher Scientific, C34557) prior seeding at 10,000 cells into 96-well plates under normal conditions or pre-plated with OP9-DL1 cells. Cells were cultured in RPMI 1640 supplemented with 20% fetal bovine serum, 50 µg/ml streptomycin, 50 UI penicillin, 4 mM L-glutamine, and a cocktail of human cytokines as previously established (50 ng/ml human stem cell factor, 20 ng/ml hFLT3-L, 10 ng/ml hIL-7 and 20 nM insulin (Miltenyi Biotec))[28]. […] Rescue by dC supplementation (1 µM) was also evaluated. OR0642 was then tested alone, or combined with dT or dT + dC at two concentrations (0.25 and 0.5 µM). Cell viability was evaluated by flow cytometry 72 h post-treatment. Proliferation indexes were calculated using the detection of CTV in the control replicates (DMSO) and the proliferation modeling tool of FlowJo™ Software 10.7.1 (BD Life Sciences). A control peak of undivided CTV-stained cells was systematically used to set the undivided fraction.

PDX UPNT489 = assay: as above; type: cell-based, human
Excerpt: as §4

CCCN(c1nc(-c2nc(N)cc(N)n2)cs1)c1cc(-c2ccc(S(=O)(=O)N3CCN(C)CC3)cc2C(F)(F)F)ccc1C [OR0642]
remaining binding at 1 µM (PLK3): 100% | remaining binding at 1 µM (RET): 100% | remaining binding at 1 µM (PLK4): 81% | remaining binding at 1 µM (TSSK1B): 100% | remaining binding at 1 µM [1]: 100% | remaining binding at 1 µM [2]: 100% | remaining binding at 1 µM [3]: 97% | remaining binding at 1 µM (TRKA): 100% | remaining binding at 1 µM (SRPK3): 93% | remaining binding at 1 µM (PLK1): 90% | remaining binding at 1 µM (PIM2): 100% | remaining binding at 1 µM (PKAC-alpha): 85% | remaining binding at 1 µM (ROCK2): 99% | remaining binding at 1 µM (ABL1-nonphosphorylated): 94% | remaining binding at 1 µM (TGFBR1): 98% | remaining binding at 1 µM (ZAP70): 97% | remaining binding at 1 µM (p38-beta): 91% | remaining binding at 1 µM (PRKCE): 100% | remaining binding at 1 µM (MAPKAPK2): 100% | remaining binding at 1 µM [4]: 100% | remaining binding at 1 µM (RAF1): 88% | remaining binding at 1 µM (VEGFR2): 100% | remaining binding at 1 µM (p38-alpha): 100% | remaining binding at 1 µM (TIE2): 94%

Cc1cn([C@H]2C[C@H](O)[C@@H](CO)O2)c(=O)[nH]c1=O [dT, thymidine]
viability at 12 µM (PDX UPNT486; Homo sapiens, UPNT486, dT 12 µM, read-out: Cell viability, Mean (% viab)): 99.7% | viability at 37 µM (PDX UPNT486; Homo sapiens, UPNT486, dT 37 µM, read-out: Cell viability, Mean (% viab)): 95% | viability at 111 µM (PDX UPNT486; Homo sapiens, UPNT486, dT 111 µM, read-out: Cell viability, Mean (% viab)): 90.6% | viability at 333 µM (PDX UPNT486; Homo sapiens, UPNT486, dT 333 µM, read-out: Cell viability, Mean (% viab)): 100% | viability at 1000 µM (PDX UPNT486; Homo sapiens, UPNT486, dT 1000 µM, read-out: Cell viability, Mean (% viab)): 90.2% | viability at 3000 µM (PDX UPNT486; Homo sapiens, UPNT486, dT 3000 µM, read-out: Cell viability, Mean (% viab)): 77.6% | Response at dT100 µM (PDX UPNT486; PDX 486, dT 100 µM): 31 | viability at 12 µM (PDX UPNT489; Homo sapiens, UPNT489, dT 12 µM, read-out: Cell viability, Mean (% viab)): 100% | viability at 37 µM (PDX UPNT489; Homo sapiens, UPNT489, dT 37 µM, read-out: Cell viability, Mean (% viab)): 94.6% | viability at 111 µM (PDX UPNT489; Homo sapiens, UPNT489, dT 111 µM, read-out: Cell viability, Mean (% viab)): 87% | viability at 333 µM (PDX UPNT489; Homo sapiens, UPNT489, dT 333 µM, read-out: Cell viability, Mean (% viab)): 78.3% | viability at 1000 µM (PDX UPNT489; Homo sapiens, UPNT489, dT 1000 µM, read-out: Cell viability, Mean (% viab)): 71.4% | viability at 3000 µM (PDX UPNT489; Homo sapiens, UPNT489, dT 3000 µM, read-out: Cell viability, Mean (% viab)): 66.9% | Response at dT100 µM (PDX UPNT489; PDX 489, dT 100 µM): 39
